Laboratory results as given in PubChem BioAssay AID1963844 (Molecular Pharmacology Branch, DTP, NCI, 2024).

Test system: 422866-222-R5-J1-PDC complex spheroid viability
Test: Anticancer human tumor 422866-222-R5-J1-PDC patient-derived pancreatic adenocarcinoma cell line growth inhibition [POLQ]
Conditions: for IC50: curve of first compound; for viability, T/C: stronger effect = lower value
Protocol: Multicellular complex tumor spheroid response to Polymerase (POL) inhibitors (novobiocin, ART-558, RP6685) in combination with a variety of drugs and investigational agents in selected tumor cell lines
The POL inhibitors (novobiocin, ART-558, and RP6685) were evaluated both individually and in combination with standard of care and investigational anticancer small molecules within a complex spheroid model of solid tumors. . Complex spheroids include a stromal component modeled by human endothelial cells (HUVEC) and fibroblasts modeled by human mesenchymal stem cells (MSCs). The concentration ranges selected for each drug and investigational agent were based upon clinically achievable concentrations if the clinical Cmax of the agent was known.
Compounds. The drugs and investigational agents: novobiocin (NSC847541), ART-558 (NSC835418), RP-6685 (NSC848927), peposertib (NSC802822), ceralasertib (NSC780249), elimusertib (NSC800525), camonsertib (NSC841442), AZD-1390 (NSC803789), olaparib (NSC753686), talazoparib (NSC767125), rucaparib (NSC756644), sotorasib (NSC818433), MRTX-1133 (NSC836407), SN-38 (NSC673596), topotecan (NSC609699), epotoside (NSC141540), doxorubicin (NSC123127), gemcitabine (NSC613327), 5-fluorouracil (NSC19893), paclitaxel (NSC125973), vemurafenib (NSC761431), MSA-2 (NSC828583), SN-011 (NSC837082), adavosertib (NSC754352), prexasertib (NSC758257), carboplatin (NSC241240) and oxaliplatin (NSC266046), were obtained from the National Cancer Institute (NCI) Developmental Therapeutics Program Chemical Repository (21). The FDA-approved anticancer drug set is available from the Developmental Therapeutics Program at https://dtp.cancer.gov/organization/dscb/obtaining/. […] The stock solutions were prepared in dimethyl sulfoxide (DMSO, Sigma-Aldrich, St. Louis, MO, cat. D2650), except for the platinum compounds which were prepared in saline (Quality Biological, Gaithersburg, MD, cat. 114-055-101), at 800-fold the tested concentration and stored at -70 degrees C prior to their use. All drugs and investigational agents were tested over a range starting from a high concentration at or near the clinical Cmax and decreasing in half-log increments. If the clinical Cmax for an agent had not been determined, the highest concentration tested was 10 microM, except for SN-38, which was tested at a high concentration of 1 microM.
Cell Culture. All cells were maintained in an incubator at 37 degrees C and 5% CO2 with 95% humidity. The PDC lines were cultured according to standard operating procedures established by the NCI PDMR (https://pdmr.cancer.gov). Table 3 of the manuscript, lists the cell lines along with the number of the three cell types plated to form the mct-spheroids and media for tumor cell growth. After thawing, all PDC lines, except 997537-175-T-J1-PDC and 415267-285-R-J2-PDC, were cultured in Matrigel-coated flasks prepared with a working solution of 1X Ham's F-12 nutrient mix, without supplementation (Thermo Fisher Scientific, cat. 11765054), 100 U/mL penicillin-streptomycin (Thermo Fisher Scientific, cat. 15140122), and 2.5% Matrigel (Corning Inc., Corning, NY, cat. 354248) for the first three passages. The two PDC lines 997537-175-T-J1-PDC and 415267-285-R-J2-PDC were cultured on uncoated flasks. The 857933-349-R-J2-PDC line was cultured in 6C/Colon 1B media containing advanced DMEM/F-12 (Thermo Fisher Scientific, cat. 12634028), 10 mM HEPES (Thermo Fisher Scientific, cat. 15630080), 1X GlutaMAX supplement (Thermo Fisher Scientific, cat. 35050061), 0.1 mg/mL primocin (InvivoGen, San Diego, CA, cat. ant-pm-2), 10% defined fetal bovine serum, heat inactivated (HyClone Laboratories Inc., Logan, UT, cat. SH30070.03HI), 50% L-WRN conditioned media (ATCC, cat. CRL-3276), 1.25 mM N-Acetyl-L-cysteine (Sigma-Aldrich, cat. A9165), 10 mM nicotinamide (Sigma-Aldrich, cat. N0636), 1X B-27 supplement (Thermo Fisher Scientific, cat. 17504044), 1X N-2 supplement (Thermo Fisher Scientific, cat. […]

[1] = second compound 0.0316 µM, first compound 0.00316 µM
[2] = second compound 0.0316 µM, first compound 0.01 µM
[3] = second compound 0.0316 µM, first compound 0.0316 µM
[4] = second compound 0.0316 µM, first compound 0.1 µM
[5] = second compound 0.1 µM, first compound 0.00316 µM
[6] = second compound 0.1 µM, first compound 0.01 µM
[7] = second compound 0.1 µM, first compound 0.0316 µM
[8] = second compound 0.1 µM, first compound 0.1 µM
[9] = second compound 0.316 µM, first compound 0.00316 µM
[10] = second compound 0.316 µM, first compound 0.01 µM
[11] = second compound 0.316 µM, first compound 0.0316 µM
[12] = second compound 0.316 µM, first compound 0.1 µM
[13] = second compound 1 µM, first compound 0.00316 µM
[14] = second compound 1 µM, first compound 0.01 µM
[15] = second compound 1 µM, first compound 0.0316 µM
[16] = second compound 1 µM, first compound 0.1 µM
[17] = second compound 3.16 µM, first compound 0.00316 µM
[18] = second compound 3.16 µM, first compound 0.01 µM
[19] = second compound 3.16 µM, first compound 0.0316 µM
[20] = second compound 3.16 µM, first compound 0.1 µM
[21] = second compound 10 µM, first compound 0.00316 µM
[22] = second compound 10 µM, first compound 0.01 µM
[23] = second compound 10 µM, first compound 0.0316 µM
[24] = second compound 10 µM, first compound 0.1 µM
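Note: spheroids exposed to compounds for one week before readout.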
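Throughout, for viability, T/C: percent of DMSO vehicle wells luminescence so 100% = untreated viability.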

Compound `CC[C@@]1(O)C(=O)OCc2c1cc1n(c2=O)Cc2cc3c(CN(C)C)c(O)ccc3nc2-1` + Cc1cccc(N(C)C(=O)C2C(O)CCN2c2nc(C)cc(C(F)(F)F)c2C#N)c1 has an IC50 (second compound 0.0316 µM) of 0.0307 µM, an IC50 (second compound 0.1 µM) of 0.0241 µM and an IC50 (second compound 0.316 µM) of 0.0312 µM. The IC50 (second compound 1 µM) was 0.047 µM, the IC50 (second compound 3.16 µM) was 0.0259 µM and the IC50 (second compound 10 µM) was 0.0313 µM. For the same compound, the viability, T/C (second compound 0.0316 µM, first compound 0.000316 µM) was 104%, the viability, T/C (second compound 0.0316 µM, first compound 0.001 µM) was 101% and the viability, T/C [1] was 85.7%. The viability, T/C [2] was 75.7%, the viability, T/C [3] was 42.5% and the viability, T/C [4] was 45.5%. The viability, T/C (second compound 0.1 µM, first compound 0.000316 µM) was 105%, the viability, T/C (second compound 0.1 µM, first compound 0.001 µM) was 104% and the viability, T/C [5] was 97%. For the same compound, the viability, T/C [6] was 62.6%, the viability, T/C [7] was 46.2% and the viability, T/C [8] was 44.4%. It also gave a viability, T/C (second compound 0.316 µM, first compound 0.000316 µM) of 114%, a viability, T/C (second compound 0.316 µM, first compound 0.001 µM) of 105% and a viability, T/C [9] of 98.2%. For the same compound, the viability, T/C [10] was 87.5%, the viability, T/C [11] was 47.6% and the viability, T/C [12] was 46.3%. The viability, T/C (second compound 1 µM, first compound 0.000316 µM) was 114%, the viability, T/C (second compound 1 µM, first compound 0.001 µM) was 111% and the viability, T/C [13] was 91%. The viability, T/C [14] was 77.5%, the viability, T/C [15] was 53.5% and the viability, T/C [16] was 41.1%. It also gave a viability, T/C (second compound 3.16 µM, first compound 0.000316 µM) of 96.2%, a viability, T/C (second compound 3.16 µM, first compound 0.001 µM) of 108% and a viability, T/C [17] of 98.9%. For the same compound, the viability, T/C [18] was 80.3%, the viability, T/C [19] was 40.8% and the viability, T/C [20] was 46.6%. For the same compound, the viability, T/C (second compound 10 µM, first compound 0.000316 µM) was 82%, the viability, T/C (second compound 10 µM, first compound 0.001 µM) was 106% and the viability, T/C [21] was 102%. For the same compound, the viability, T/C [22] was 77%, the viability, T/C [23] was 50.7% and the viability, T/C [24] was 48.8%.
In the case of `CCc1c2c(nc3ccc(O)cc13)-c1cc3c(c(=O)n1C2)COC(=O)[C@]3(O)CC` + Cc1cccc(N(C)C(=O)C2C(O)CCN2c2nc(C)cc(C(F)(F)F)c2C#N)c1, the IC50 (second compound 0.0316 µM) is reported as less than 0.00316 µM, the IC50 (second compound 0.1 µM) is reported as less than 0.00316 µM and the IC50 (second compound 0.316 µM) is reported as less than 0.00316 µM. For the same compound, the IC50 (second compound 1 µM) was less than 0.00316 µM, the IC50 (second compound 3.16 µM) was less than 0.00316 µM and the IC50 (second compound 10 µM) was less than 0.00316 µM. The viability, T/C [1] was 44.4%, the viability, T/C [2] was 37.4% and the viability, T/C [3] was 38.7%. The viability, T/C [4] was 37.7%, the viability, T/C (second compound 0.0316 µM, first compound 0.316 µM) was 34.4% and the viability, T/C (second compound 0.0316 µM, first compound 1 µM) was 21.4%. The viability, T/C [5] was 49.1%, the viability, T/C [6] was 34.3% and the viability, T/C [7] was 38.9%. It also gave a viability, T/C [8] of 34.8%, a viability, T/C (second compound 0.1 µM, first compound 0.316 µM) of 34.2% and a viability, T/C (second compound 0.1 µM, first compound 1 µM) of 28.2%. For the same compound, the viability, T/C [9] was 46.2%, the viability, T/C [10] was 40.4% and the viability, T/C [11] was 37.3%. It also gave a viability, T/C [12] of 38.1%, a viability, T/C (second compound 0.316 µM, first compound 0.316 µM) of 34.6% and a viability, T/C (second compound 0.316 µM, first compound 1 µM) of 25%. The viability, T/C [13] was 40.9%, the viability, T/C [14] was 45.4% and the viability, T/C [15] was 34.4%. The viability, T/C [16] was 35.2%, the viability, T/C (second compound 1 µM, first compound 0.316 µM) was 40.6% and the viability, T/C (second compound 1 µM, first compound 1 µM) was 18.2%. The viability, T/C [17] was 49.7%, the viability, T/C [18] was 38.3% and the viability, T/C [19] was 35.1%. It also gave a viability, T/C [20] of 34.6%, a viability, T/C (second compound 3.16 µM, first compound 0.316 µM) of 39.3% and a viability, T/C (second compound 3.16 µM, first compound 1 µM) of 26.4%. For the same compound, the viability, T/C [21] was 42.1%, the viability, T/C [22] was 40.1% and the viability, T/C [23] was 42.2%. For the same compound, the viability, T/C [24] was 38%, the viability, T/C (second compound 10 µM, first compound 0.316 µM) was 44.2% and the viability, T/C (second compound 10 µM, first compound 1 µM) was 24.6%.
